# Results taken from patent publication US20160238590A1, “COMPOSITIONS AND METHODS RELATED TO OAT SENSITIVITY” (IMMUSANT, INC., priority 2013, published 2016).
# How the values were obtained:
# Format in all cases: cell-based, human
# PBMC [1] = test: IFN-γ ELISpot on PBMC of CD patients on day 6 after 3-day oats challenge; details: after 3-day oats challenge
# From the text: (§1) Australian Caucasian HLA-DQ2.5^+ and/or HLA-DQ8^+ CD subjects were recruited by advertisement in the Coeliac Society of Victoria newsletter and all had biopsy-proven CD conforming to ESPGHAN criteria. Patients had been on strict gluten free diet for at least 4 weeks prior to commencing grain challenge. Patients underwent 3-day grain challenge with oats, barley, or combined wheat, barley, and rye muffins, and 6 days after commencement, blood was collected. Day 0 responses were not observed in the selection of patients tested, as described previously^8.
# (§2) Oats challenge consisted of 100 g dry weight daily of one of three commercial brands of oats: one not tested for wheat contamination (Uncle Toby's; Oats #1), and two shown by R5 ELISA to contain less than 20 ppm wheat gluten (Tilquhilie Pudding; Oats #2 and Freedom Food; Oats #3). Barley challenge consisted of pearl barley (Ward McKenzie) cooked into a risotto (150 g dry weight daily) and the wheat challenge consisted of four 50 g slices of wheat bread daily (Baker's Delight white loaf cut to toasting thickness). The combined wheat, barley, and rye challenge consisted of muffins baked with wheat flour (White Wings), barley flour (Four Leaf Milling), and rye flour (Four Leaf Milling; 22-25 g dry weight each daily). A symptom diary based on a […] Likert scale was completed by participants daily from baseline until day 6.
# (§3) Two avenin peptide libraries were utilized for epitope screening. These were designed using avenin sequences from GenBank and a customized algorithm, as previously described^9. The initial library consisted of 199 screening-grade 20 mers including all possible 12 mers (Mimotopes). This library was screened with and without tTG pre-treatment. The second library consisted of additional avenin sequences that were synthesized with glutamate substitution at sites predicted to be deamidated by published algorithms^10, 11 removing the requirement for tTG treatment. This library contained 369 screening-grade 20 mers, including all possible 12 mers (Pepscan). The second round avenin library contained wild-type and deamidated versions of the most immunogenic sequences (25 high quality 16 mers from Mimotopes). High quality peptides containing previously described immunogenic sequences from wheat, barley, and rye were used to test for cross-reactivity^8 (Pepscan). High quality hordein and avenin peptides for TCC testing and biochemical studies were ordered from Pepscan, Mimotopes, or GL Biochem.
# (§4) Peripheral blood mononuclear cells (PBMC) were isolated from heparinized whole blood using Ficoll-Paque™ Plus density-gradient centrifugation (GE Healthcare). IFN-γ ELISpot (Mabtech) was set up as previously described^8.
# Patient 2 TCC-01 = test: IFN-γ ELISpot with T cell clone
# Protocol: as §4
# (§5) Isolation of TCC from CD patients was carried out as previously described^8. Briefly, CFSE-labeled PBMC were incubated with antigen for 7 days in IMDM supplemented with 5% heat-inactivated pooled human serum (PHS), 2 mM GlutaMAX™, 100 μM MEM non-essential amino acids (both from Gibco, Invitrogen), and 50 μM 2-mercaptoethanol (Sigma). Proliferated cells were single-cell sorted into 96-well plates containing IL-2, IL-4, anti-CD3 mAb, irradiated feeder cells (allogeneic PBMC and JY-EBV). TCC were expanded and maintained in IL-2 and IL-4 and tested for specificity by ELISpot with irradiated HLA-matched PBMC as antigen-presenting cells. Expanded clones were tested for HLA-DQ restriction, TCR Vbeta usage, and with lysine scans to work out minimal epitopes. See Table 1 below for TCC and epitope information.
# Patient 8 TCC-01 = test: IFN-γ ELISpot with T cell clone; details: TCC Patient 8 TCC-01, peptide 25 μg/mL
# Protocol: as §4, §5
# Patient 2 TCC-03 = test: IFN-γ ELISpot with T cell clone; details: TCC Patient 2 TCC-03, peptide 25 μg/mL
# Protocol: as §4, §5
# Patient 6 TCC-01 = test: IFN-γ ELISpot with T cell clone
# Protocol: as §4, §5
# Patient 2 TCC-02 = test: IFN-γ ELISpot with T cell clone; details: for IFN-γ ELISpot response (SFU) / significant SFU as a percentage of maximal peptide SFU: TCC Patient 2 TCC-02, peptide 25 μg/mL
# Protocol: as §4, §5
# PBMC [2] = test: IFN-γ ELISpot on PBMC of CD patients after 3-day barley challenge; details: after barley challenge
# From the text: as §1, §2, §3, §4
# Patient 14 TCC-01 = test: IFN-γ ELISpot with T cell clone; details: TCC Patient 14 TCC-01 (Table 5); mean no antigen 11.3, high background, SFU >25 considered as positive responses
# Protocol: as §4, §5
# [3] = TCC Patient 2 TCC-01, peptide 25 μg/mL
# [4] = TCC Patient 6 TCC-01, peptide 25 μg/mL
Sequence,"IFN-γ ELISpot response (raw SFU) (PBMC [1]; patient P1, peptide 1 μg/ml) [SFU]","IFN-γ ELISpot response (raw SFU) (PBMC [1]; patient P1, peptide 10 μg/ml) [SFU]","significant SFU as a percentage of maximal peptide SFU (PBMC [1]; patient P1, peptide 10 μg/ml)","IFN-γ ELISpot response (raw SFU) (PBMC [1]; patient P1, peptide 100 μg/ml) [SFU]","IFN-γ ELISpot response (raw SFU) (PBMC [1]; patient P2, peptide 1 μg/ml) [SFU]","IFN-γ ELISpot response (raw SFU) (PBMC [1]; patient P2, peptide 10 μg/ml) [SFU]","IFN-γ ELISpot response (raw SFU) (PBMC [1]; patient P2, peptide 100 μg/ml) [SFU]","significant SFU as a percentage of maximal peptide SFU (PBMC [1]; patient P2, peptide 100 μg/ml)","IFN-γ ELISpot response (raw SFU) (PBMC [1]; patient P3, peptide 1 μg/ml) [SFU]","IFN-γ ELISpot response (raw SFU) (PBMC [1]; patient P3, peptide 10 μg/ml) [SFU]","IFN-γ ELISpot response (raw SFU) (PBMC [1]; patient P3, peptide 100 μg/ml) [SFU]","IFN-γ ELISpot response (raw SFU) (PBMC [1]; patient P11, peptide 1 μg/ml) [SFU]","IFN-γ ELISpot response (raw SFU) (PBMC [1]; patient P11, peptide 10 μg/ml) [SFU]","IFN-γ ELISpot response (raw SFU) (PBMC [1]; patient P11, peptide 100 μg/ml) [SFU]","IFN-γ ELISpot response (raw SFU) (PBMC [1]; patient P12, peptide 1 μg/ml) [SFU]","IFN-γ ELISpot response (raw SFU) (PBMC [1]; patient P12, peptide 10 μg/ml) [SFU]","IFN-γ ELISpot response (raw SFU) (PBMC [1]; patient P12, peptide 100 μg/ml) [SFU]","IFN-γ ELISpot response (raw SFU) (PBMC [1]; patient P13, peptide 50 μg/ml) [SFU]",IFN-γ ELISpot response (SFU) (Patient 2 TCC-01; [3]),IFN-γ ELISpot response (SFU) (Patient 8 TCC-01),also measured
QYQPYPEQEEPFVQQQ,8,15,** (**: 40-70%),5,7,12,20,* (*: 20-40%),20,31,2,2,0,0,4,3,2,9,2,0,"significant SFU as a percentage of maximal peptide SFU (PBMC [1]; patient P2, peptide 10 μg/ml): * (*: 20-40%); significant SFU as a percentage of maximal peptide SFU (PBMC [1]; patient P3, peptide 1 μg/ml): * (*: 20-40%); significant SFU as a percentage of maximal peptide SFU (PBMC [1]; patient P3, peptide 10 μg/ml): ** (**: 40-70%); IFN-γ ELISpot response (SFU) (Patient 2 TCC-03): 0 SFU; IFN-γ ELISpot response (SFU) (Patient 6 TCC-01; [4]): 1 SFU; rank of TCC response among homologous peptides (Patient 2 TCC-02; Patient 2 TCC-02 (FIG. 2)): greatest response; IFN-γ ELISpot response (SFU) (Patient 2 TCC-02): 284 SFU; significant SFU as a percentage of maximal peptide SFU (Patient 2 TCC-02): *** (***: >70%)"
SEQYQPYPEQEQPFV [DQ2.5-ave-1b],–,–,–,–,–,–,–,–,–,–,–,–,–,–,–,–,–,–,240,50,significant SFU as a percentage of maximal peptide SFU (Patient 2 TCC-01; [3]): *** (***: >70%); significant SFU as a percentage of maximal peptide SFU (Patient 8 TCC-01): * (*: 20-40%); IFN-γ ELISpot response (SFU) (Patient 2 TCC-03): 1 SFU; IFN-γ ELISpot response (SFU) (Patient 6 TCC-01; [4]): 30 SFU; significant SFU as a percentage of maximal peptide SFU (Patient 6 TCC-01; [4]): * (*: 20-40%); IFN-γ ELISpot response (SFU) (Patient 2 TCC-02): 102 SFU; significant SFU as a percentage of maximal peptide SFU (Patient 2 TCC-02): * (*: 20-40%)
SEQYQPYPEQEQPFVQ [deamidated avenin peptide containing DQ2.5-ave-1b],24,18,** (**: 40-70%),10,5,9,24,** (**: 40-70%),4,7,2,0,3,0,2,4,2,13,–,–,"significant SFU as a percentage of maximal peptide SFU (PBMC [1]; patient P1, peptide 1 μg/ml): *** (***: >70%); significant SFU as a percentage of maximal peptide SFU (PBMC [1]; patient P13, peptide 50 μg/ml): * (*: 20-40%); IFN-γ ELISpot response (raw SFU) (PBMC [2]; Patient 1, peptide 50 μg/ml): 77 SFU; significant SFU as a percentage of maximal peptide SFU (PBMC [2]; Patient 1, peptide 50 μg/ml): * (*: 20-40%); IFN-γ ELISpot response (raw SFU) (PBMC [2]; Patient 2, peptide 50 μg/ml): 225 SFU; significant SFU as a percentage of maximal peptide SFU (PBMC [2]; Patient 2, peptide 50 μg/ml): *** (***: >70%); IFN-γ ELISpot response (raw SFU) (PBMC [2]; Patient 3, peptide 50 μg/ml): 36 SFU; significant SFU as a percentage of maximal peptide SFU (PBMC [2]; Patient 3, peptide 50 μg/ml): * (*: 20-40%); IFN-γ ELISpot response (raw SFU) (Patient 2 TCC-01; TCC Patient 2 TCC-01 (Table 5), mean no antigen 1.1): 295 SFU; IFN-γ ELISpot response (raw SFU) (Patient 14 TCC-01): 10 SFU; IFN-γ ELISpot response (raw SFU) (Patient 6 TCC-01; TCC Patient 6 TCC-01 (Table 5), mean no antigen 2): 12 SFU"
